Consider 1 compound from US10532106B2 (priority 2014, dated 2020).

The target of one data set is T1, MT1-MMP hemopexin domain (Homo sapiens, UniProt P50281).
T1 construct: residues Cys319-Gly511 from the human gene; His6 (N); made in house; host or cells: HEK293 (transient), pEXPR-IBA42 vector
Description: Competition assay using fluorescence polarisation. It is filed as binding. Conditions: murine, dog, cynomolgus and human MT1-MMP. Summed up: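 Pre-formed PEX–fluorescent tracer complex titrated with non-fluoresceinated bicyclic peptide, which displaces tracer and lowers fluorescence polarisation. Competitor Kd obtained by fitting to the cubic-equation solution for tracer/titrant/protein equilibria, using tracer Kd from separate direct-binding FP.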
For orientation: Polarisation of emitted light reports the rotation of a fluorescent probe.

Data set [1] in a line: Degradation products in mouse plasma by MALDI-TOF (Method #1). It is filed as in vitro ADME. Here is the method:
A rapid plasma stability profiling assay was developed that employed mass spectrometric detection (MALDI-TOF, Voyager DE, Applied Biosystems) of the parent mass as well as plasma-protease induced fragments thereof. By assessing the nature of the fragments, preferred cleavage sites can be determined. Here, a 1-1.5 mM peptide stock (in DMSO) was directly diluted into mouse/rat/human plasma (Sera labs, using citrate as anticoagulant), giving a final concentration of 50 μM peptide, and incubated for up to 48 hrs at 37° C. 5 μL samples were taken at appropriate time points and frozen at −80° C. For analysis, the samples were defrosted, mixed with 25 μL of 3:3:1 acetonitrile:methanol:water, and centrifuged at 13 k for 5 min. 5 μL of the peptide-containing supernatant was aspirated and mixed with 30 mM ammonium bicarbonate in a 1:1 mixture of acetonitrile:H2O. 1 μL of this was then spotted on the MALDI plate, dried, and Matrix (alpha-cyanocinnamic acid, Sigma, prepared as a saturated solution in 1:1 acetonitrile:water containing 0.1% trifluoroacetic acid) was layered over the sample (1 μL), dried and analysed using the MALDI TOF. […]
In an effort to understand the chemical nature of the degradation of 17-69-07-N219 in mouse plasma, samples were analysed using MALDI-TOF for any potential degradation products.

Data set [2] in a line: Plasma stability, quantitative LC-MS (Method #2). It is filed as in vitro ADME, mouse. Here is the method: […] […] Prior to LC-MS analysis, samples were defrosted, and mixed with 3 volumes (here, 120 μL) of 1:1 acetonitrile/MeOH water. The milky suspensions were centrifuged for 30 min at 13000 rpm, and peptide-containing supernatants were quantitated for doubly/triply charged species and MS/MS fragments thereof using a Waters Xevo TQ-D instrument, while using a plasma extracted standard curve of the same peptides as a reference. The half-life of degradation in plasma was used to assess the comparative stability of the molecules.

A short description of data set [3]: Plasma stability, quantitative LC-MS. In kind it is in vitro ADME, rat. Conditions: Table 16; incubation up to 24 hrs, 4 μM.

Each structure is given as a SMILES string. Numbered stars: 1 amine (or outer) side, 2 acyl side, 3 side chain; on linkers, the order of the positions; unused ones are H or OH. Bridge positions count the residues as written; N and C are the ends. Square brackets hold non-standard residues; d marks the D form. Peptide text beside a SMILES is read from it. TBMB = c1c(C[*:1])cc(C[*:3])cc1C[*:2]; Sar = CNCC(=O)O

On to `CC[C@H](C)[C@@H]1NC(=O)[C@H](CC(=O)O)NC(=O)[C@H](Cc2ccc(O)cc2)NC(=O)[C@H](Cc2ccccc2)NC(=O)[C@H](CC(=O)O)NC(=O)[C@H](CCC(=O)O)NC(=O)[C@@H]2CSCc3cc(cc(c3)CSC[C@H](NC(=O)[C@H](C)NC(=O)CN(C)C(=O)CN(C)C(=O)CN(C)C(=O)CN(C)C(=O)CN(C)C(=O)CN(C)C(=O)CN(C)C(=O)CN(C)C(=O)CN(C)C(=O)CN(C)C(=O)CN)C(=O)N[C@@H](Cc3ccc(O)cc3)C(=O)N[C@@H](CC(N)=O)C(=O)N[C@@H](CCC(=O)O)C(=O)N[C@@H](Cc3ccccc3)C(=O)NCC(=O)N2)CSC[C@@H](C(N)=O)NC1=O` [17-69-07-N219, G-Sar10-A-(17-69-07)] (H-G[Sar][Sar][Sar][Sar][Sar][Sar][Sar][Sar][Sar][Sar]ACYNEFGCEDFYDIC-NH2; linker 13-19-26 via TBMB), for which the species cross-reactivity result at MT1-MMP hemopexin domain is “fully cross reactive”. Moreover, the degradation products entry in data set [1] was “possible loss of tyrosine”. Further, the “t1/2 (hrs) (mouse plasma)” value in data set [2] (Table 16, incubation up to 24 hrs, 4 μM) turned out to be 3.9 ± 0.3 h. Further, the “half-life in mouse plasma” value in data set [2] (ex vivo mouse plasma at 37° C. (FIG. 1, FIG. 3A)) was found to be 6 h. Moreover, in data set [3], the “t1/2 (hrs) (rat plasma)” value is reported as 3.7 ± 0^ hrs.
